Measurements published in patent US10654837B2, “Sulphamoylaryl derivatives and use thereof as medicaments for the treatment of liver fibrosis” (Janssen Pharmaceutica NV, priority 2017, dated 2020).

target: T1, 5HTR2B (Homo sapiens, UniProt P41595); assay: 5HTR2B antagonist activity, calcium mobilization assay in human Maverick/293 cells (serotonin as agonist); type: cell-based; conditions: intracellular calcium, emission 525 nm, read-out: Ca assay IC50
T1 construct: host or cells: human Maverick/293 cells
In short: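 Calcium mobilization read over 80 s at ex 485/em 525 nm after serotonin addition. Before that, 2 h serum-free starvation, 50 min dye loading at 37 °C, and 15-30 min antagonist exposure. IC50 from sigmoidal fit of peak % inhibition.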

T1 sequence (P41595 whole entry): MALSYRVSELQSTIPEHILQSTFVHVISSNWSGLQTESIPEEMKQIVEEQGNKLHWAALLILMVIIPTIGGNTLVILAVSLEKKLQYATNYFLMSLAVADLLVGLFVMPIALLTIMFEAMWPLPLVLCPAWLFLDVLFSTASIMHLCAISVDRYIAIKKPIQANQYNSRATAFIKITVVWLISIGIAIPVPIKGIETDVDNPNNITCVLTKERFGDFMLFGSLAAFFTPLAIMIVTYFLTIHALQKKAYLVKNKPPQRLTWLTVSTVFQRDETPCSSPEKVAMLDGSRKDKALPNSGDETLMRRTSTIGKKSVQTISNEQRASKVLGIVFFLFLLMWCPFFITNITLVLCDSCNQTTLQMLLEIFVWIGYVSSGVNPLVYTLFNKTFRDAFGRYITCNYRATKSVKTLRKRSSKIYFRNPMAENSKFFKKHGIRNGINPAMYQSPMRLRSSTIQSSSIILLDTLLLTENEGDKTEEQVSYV

In order of rising IC50:
1. COc1ccc(S(=O)(=O)N[C@H]2CCOC2)cc1C(=O)Nc1nc(C)cs1 [Compound 82, (S)-2-methoxy-N-(4-methylthiazol-2-yl)-5-(N-(tetrahydrofuran-3-yl)sulfamoyl) benzamide]  1.1 nM
2. COc1ccc(S(=O)(=O)N[C@H]2CCOC2)cc1C(=O)Nc1ccc(Cl)cc1Cl [Compound 85, (S)—N-(2,4-Dichlorophenyl)-2-methoxy-5-(N-(tetrahydrofuran-3-yl)sulfamoyl) benzamide]  1.5 nM
3. COc1ccc(S(=O)(=O)N[C@H]2CCOC2)cc1C(=O)Nc1ccccc1F [Compound 99, (S)—N-(2-Fluorophenyl)-2-methoxy-5-(N-(tetrahydrofuran-3-yl)sulfamoyl) benzamide]  1.6 nM
4. COc1ccc(S(=O)(=O)N[C@H]2CCOC2)cc1C(=O)Nc1cc(Cl)cc(Cl)c1 [Compound 86, (S)—N-(3,5-Dichlorophenyl)-2-methoxy-5-(N-(tetrahydrofuran-3-yl)sulfamoyl) benzamide]  1.8 nM
5. COc1ccc(S(=O)(=O)N[C@H]2CCOC2)cc1C(=O)Nc1cccc(F)c1 [Compound 100, (S)—N-(3-Fluorophenyl)-2-methoxy-5-(N-(tetrahydrofuran-3-yl)sulfamoyl) benzamide]  4.6 nM
6. COc1ccc(S(=O)(=O)N[C@H]2CCOC2)cc1C(=O)Nc1ccc(Cl)cc1 [Compound 108, (S)—N-(4-Chlorophenyl)-2-methoxy-5-(N-(tetrahydrofuran-3-yl)sulfamoyl) benzamide]  5.5 nM
7. COc1ccc(S(=O)(=O)N[C@H]2CCOC2)cc1C(=O)Nc1c(F)cccc1Cl [Compound 103, (S)—N-(2-Chloro-6-fluorophenyl)-2-methoxy-5-(N-(tetrahydrofuran-3-yl)sulfamoyl)benzamide]  8.4 nM
8. COc1ccc(S(=O)(=O)N[C@H]2CCOC2)cc1C(=O)Nc1cc(Cl)cc(C#N)c1 [Compound 94, (S)—N-(3-Chloro-5-cyanophenyl)-2-methoxy-5-(N-(tetrahydrofuran-3-yl)sulfamoyl)benzamide]  12 nM
9. COc1ccc(S(=O)(=O)N[C@H]2CCOC2)cc1C(=O)Nc1c(F)cccc1F [Compound 105, (S)—N-(2,6-Difluorophenyl)-2-methoxy-5-(N-(tetrahydrofuran-3-yl)sulfamoyl) benzamide]  12 nM
10. COc1ccc(S(=O)(=O)N[C@H]2CCOC2)cc1C(=O)Nc1cccc(OC(F)F)c1 [Compound 107, (S)—N-(3-(Difluoromethoxy)phenyl)-2-methoxy-5-(N-(tetrahydrofuran-3-yl)sulfamoyl)benzamide]  27 nM
11. COc1ccc(S(=O)(=O)N[C@H]2CCOC2)cc1C(=O)Nc1ccc(F)c(F)c1F [Compound 88, (S)-2-Methoxy-5-(N-(tetrahydrofuran-3-yl)sulfamoyl)-N-(2,3,4-trifluorophenyl) benzamide]  28 nM
12. COc1ccc(S(=O)(=O)N[C@H]2CCOC2)cc1C(=O)Nc1cc(F)cc(C#N)c1 [Compound 87, (S)—N-(3-Cyano-5-fluorophenyl)-2-methoxy-5-(N-(tetrahydrofuran-3-yl)sulfamoyl)benzamide]  29 nM
13. COc1ccc(S(=O)(=O)N[C@H]2CCOC2)cc1C(=O)Nc1c(Cl)cccc1Cl [Compound 81, (S)—N-(2,6-Dichlorophenyl)-2-methoxy-5-(N-(tetrahydrofuran-3-yl)sulfamoyl) benzamide]  32 nM
14. COc1ccc(S(=O)(=O)N[C@H]2CCOC2)cc1C(=O)Nc1cc(F)c(C#N)cc1F [Compound 98, (S)—N-(4-Cyano-2,5-difluorophenyl)-2-methoxy-5-(N-(tetrahydrofuran-3-yl)sulfamoyl)benzamide]  37 nM
15. COc1ccc(S(=O)(=O)N[C@H]2CCOC2)cc1C(=O)Nc1cc(F)cc(F)c1Cl [Compound 96, (S)—N-(2-Chloro-3,5-difluorophenyl)-2-methoxy-5-(N-(tetrahydrofuran-3-yl)sulfamoyl)benzamide]  84 nM
16. COc1ccc(S(=O)(=O)N[C@H]2CCOC2)cc1C(=O)Nc1c(F)cc(Cl)cc1F [Compound 91, (S)—N-(4-Chloro-2,6-difluorophenyl)-2-methoxy-5-(N-(tetrahydrofuran-3-yl)sulfamoyl)benzamide]  92 nM
17. COc1ccc(S(=O)(=O)N[C@H]2CCOC2)cc1C(=O)Nc1nc(C)c(C)s1 [Compound 83, (S)—N-(4,5-dimethylthiazol-2-yl)-2-methoxy-5-(N-(tetrahydrofuran-3-yl)sulfamoyl)benzamide]  126 nM
18. COc1ccc(S(=O)(=O)N[C@H]2CCOC2)cc1C(=O)Nc1cccc(C#N)c1F [Compound 92, (S)—N-(3-Cyano-2-fluorophenyl)-2-methoxy-5-(N-(tetrahydrofuran-3-yl)sulfamoyl)benzamide]  136 nM
19. COc1ccc(S(=O)(=O)N[C@H]2CCOC2)cc1C(=O)Nc1cc(F)c(F)c(F)c1 [Compound 97, (S)-2-Methoxy-5-(N-(tetrahydrofuran-3-yl)sulfamoyl)-N-(3,4,5-trifluorophenyl) benzamide]  186 nM
20. COc1ccc(S(=O)(=O)N[C@H]2CCOC2)cc1C(=O)Nc1ccc(C#N)cc1 [Compound 104, (S)—N-(4-Cyanophenyl)-2-methoxy-5-(N-(tetrahydrofuran-3-yl)sulfamoyl) benzamide]  201 nM
21. COc1ccc(S(=O)(=O)N[C@H]2CCOC2)cc1C(=O)Nc1ccc(C(F)(F)F)cc1 [Compound 101, (S)-2-Methoxy-5-(N-(tetrahydrofuran-3-yl)sulfamoyl)-N-(4-(trifluoromethyl)phenyl)benzamide]  219 nM
22. COc1ccc(S(=O)(=O)N[C@H]2CCOC2)cc1C(=O)Nc1cccc(C(F)(F)F)c1 [Compound 109, (S)-2-Methoxy-5-(N-(tetrahydrofuran-3-yl)sulfamoyl)-N-(3-(trifluoromethyl)phenyl)benzamide]  231 nM
23. COc1ccc(S(=O)(=O)N[C@H]2CCOC2)cc1C(=O)Nc1cccc(C#N)c1 [Compound 102, (S)—N-(3-cyanophenyl)-2-methoxy-5-(N-(tetrahydrofuran-3-yl)sulfamoyl) benzamide]  435 nM
24. COc1ccc(S(=O)(=O)N[C@H]2CCOC2)cc1C(=O)Nc1ccc(OC(F)F)cc1 [Compound 106, (S)—N-(4-(Difluoromethoxy)phenyl)-2-methoxy-5-(N-(tetrahydrofuran-3-yl)sulfamoyl)benzamide]  596 nM
25. COc1ccc(S(=O)(=O)N[C@H]2CCOC2)cc1C(=O)Nc1ccc(F)c(C#N)c1 [Compound 95, (S)—N-(3-Cyano-4-fluorophenyl)-2-methoxy-5-(N-(tetrahydrofuran-3-yl)sulfamoyl)benzamide]  648 nM
26. COc1ccc(S(=O)(=O)N[C@H]2CCOC2)cc1C(=O)Nc1ncc(C)s1 [Compound 84, (S)-2-methoxy-N-(5-methylthiazol-2-yl)-5-(N-(tetrahydrofuran-3-yl)sulfamoyl) benzamide]  716 nM
27. COc1ccc(S(=O)(=O)N[C@H]2CCOC2)cc1C(=O)Nc1c(F)ccc(Cl)c1F [Compound 93, (S)—N-(3-Chloro-2,6-difluorophenyl)-2-methoxy-5-(N-(tetrahydrofuran-3-yl)sulfamoyl)benzamide]  1060 nM
28. COc1ccc(S(=O)(=O)N[C@H]2CCOC2)cc1C(=O)Nc1ccc(C#N)c(F)c1 [Compound 90]  1360 nM
29. COc1ccc(S(=O)(=O)N[C@H]2CCOC2)cc1C(=O)Nc1ccc(C#N)c(Cl)c1 [Compound 89, (S)—N-(3-Chloro-4-cyanophenyl)-2-methoxy-5-(N-(tetrahydrofuran-3-yl)sulfamoyl)benzamide]  1950 nM
